# Patent US20160289663A1, “NOVEL CHIMERIC GENE ATF7IP-PDGFRB OF ACUTE LYMPHOBLASTIC LEUKEMIA” (priority 2013, published 2016)
# Counter-ions that a name gives are not always drawn.
# Tests used:
# [1] = system: ATF7IP-PDGFRB-expressing Ba/F3 cells; assay: Cell proliferation (WST) assay, ATF7IP-PDGFRB Ba/F3 transfectants without conditioned medium; conditions: for effect on viable cell number: next-generation TKIs, FIG. 13
# Method: (A) ATF7IP-PDGFRB-expressing Ba/F3 cells in the absence of WEHI-3-conditioned medium (CM) and Mock Ba/F3 cells in the presence of CM were each treated with or without either the PI3 kinase inhibitor LY294002 or the MEK inhibitor PD98059 at the indicated concentrations for 24 hours. Subsequently, the number of living cells was estimated for each type of the cells by WST assay in the same way as in FIG. 5B. The ratio of the OD value obtained from the inhibitor-treated cells relative to that obtained from the inhibitor-untreated cells was calculated and expressed as the means±SEM of triplicates. (B) ATF7IP-PDGFRB-expressing Ba/F3 cells were treated with PD98059 in the presence or absence of CM, and examined in the same way as in (A). […]
# The data were analyzed by F-test. P values less than 0.05 were considered significant. All experiments were performed at least three times to calculate means and SEM values.
# [2] = system: recurrent Ph-like acute lymphoblastic leukemia bearing ATF7IP/PDGFRB translocation; assay: Dasatinib monotherapy case report, MRD monitored by leukemia-specific genomic PCR; format: in vivo, human; conditions: one patient, 66 mg/m^2/day
# Method: (A) The therapeutic response was evaluated by fluorescence in situ hybridization (FISH), RT-PCR (Kobayashi K., et al., Br J Haematol, 2014, 165, 836-841), and genomic PCR.
# This example describes a monotherapy with the tyrosine kinase inhibitor (TKI) dasatinib in a patient with recurrent Ph-like acute lymphoblastic leukemia bearing ATF7IP/PDGFRB translocation.
# [3] = system: myeloid malignancies bearing PDGFRB fusion genes; conditions: without secondary resistance; Cheah et al., Blood 2014; cited from earlier work
# [4] = system: phosphorylation of MAP kinases/AKT and PDGFRB in ATF7IP-PDGFRB-expressing Ba/F3 cells; assay: Immunoblot of MAP kinase/AKT/PDGFRB phosphorylation in ATF7IP-PDGFRB Ba/F3 cells; format: cell-based, mouse; conditions: immunoblotting, FIG. 11
# Method: Cell lysates were prepared from the same sample preparations as in FIG. 10. Immunoblot analysis was performed in the same way as in FIG. 8. Abbreviations: None, without inhibitor; LY, with LY294002; and PD, with PD98059.
# Immunoblot analysis was performed as in FIG. 8.
# Immunoblot analysis was performed as described previously (Kiyokawa, et al., J Biol Chem, 1997, 272, 18656-18665; Tomita, et al., Leukemia Research, 2014, 38, 361-370) using the following antibodies: anti-phosphotyrosine (4G10; Merck Millipore), anti-PDGF receptor β (28E1), anti-phospho-PDGF receptor β Tyr751 (C63G6), anti-phospho-PDGF receptor β Tyr 771 (76D6), anti-phospho-PDGF receptor β Tyr1009 (42F9), anti-phospho-PDGF receptor β Tyr1021 (6F10), anti-phospho-p44/42 MAPK (ERK1/2, Tyr202/Tyr204), anti-phospho-p38 MAPK (Thr180/Tyr182), anti-phospho-JNK (Thr183/Tyr185, 81E11), anti-phospho-AKT (Ser473), anti-phospho-PLCγ1 (Tyr783), anti-Casitas B-lineage lymphoma binding (Cbl), anti-p38 MAPK antibody and anti-JNK antibody (Cell Signaling Technology); anti-ATF7IP (MCAF1) (Abcam, Cambridge, UK); anti-ERK, anti-PLCγ, (BD Biosciences, San Jose, Calif., USA); anti-β-actin (Sigma-Aldrich, St. Louis, Mo.); and horseradish peroxidase (HRP)-conjugated secondary antibody (Dako, Glostrup, Denmark). […]
# Mock Ba/F3 cells = assay: Cell proliferation (WST) assay, Mock Ba/F3 cells with WEHI-3-conditioned medium; format: cell-based, mouse; conditions: 24 hours, presence of conditioned medium, FIG. 10A
# Method: The data were analyzed by F-test. P values less than 0.05 were considered significant.
# [5] = Mus musculus, BaF3, 48 h, read-out: viable cell number
compound,measurement,setting,value
Cc1ccc(NC(=O)c2ccc(CN3CCN(C)CC3)cc2)cc1Nc1nccc(-c2cccnc2)n1 [imatinib],cell proliferation,"[1]; IL-3-independent proliferation, exposure to TKI",significantly inhibited in a concentration-dependent manner
same,viability at 0.025 µM,[1]; [5],< 10%
Cc1nc(Nc2ncc(C(=O)Nc3c(C)cccc3Cl)s2)cc(N2CCN(CCO)CC2)n1 [dasatinib],viability at 0.0025 µM,[1]; [5],< 10%
same,duration of complete molecular remission,[2],≥ 12 months
same,time to disappearance of MRD,[2]; leukemia-specific genomic PCR,≤ 3 months
Cc1ccc(NC(=O)c2ccc(CN3CCN(C)CC3)cc2)cc1Nc1nccc(-c2cccnc2)n1 [imatinib mesylate],10-year overall survival rate,[3],90%
COc1cccc(-c2cc(=O)c3ccccc3o2)c1N [PD98059],cell death,"[1]; 24 hours, absence of conditioned medium, FIG. 10A",induced cell death
same,MEK inhibitor-induced cell death with simultaneous conditioned medium containing IL3,"[1]; presence of conditioned medium, FIG. 10B",partially avoided
same,phosphorylation of MAP kinase,[4],markedly reduced
same,cell death,Mock Ba/F3 cells,not in the Mock-expressing Ba/F3 cells
CNC(=O)c1cc(Oc2ccc(NC(=O)Nc3cc(C(C)(C)C)nn3-c3ccc4ncccc4c3)c(F)c2)ccn1 [rebastinib],effect on viable cell number,[1],effectively reduced the viable cell number
Cc1cn(-c2cc(NC(=O)c3ccc(C)c(Nc4nccc(-c5cccnc5)n4)c3)cc(C(F)(F)F)c2)cn1 [nilotinib],effect on viable cell number,[1],effectively reduced the viable cell number
